# Assay results reported in patent US10227323B2, “Glucosylceramide synthase inhibitors for the treatment of diseases” (BIOMARIN PHARMACEUTICAL INC., priority 2013, dated 2019).
# Molecular target: T1, GCS (Canis lupus familiaris, UniProt A0A8I3MXG6)
# T1 sequence (A0A8I3MXG6 1-394): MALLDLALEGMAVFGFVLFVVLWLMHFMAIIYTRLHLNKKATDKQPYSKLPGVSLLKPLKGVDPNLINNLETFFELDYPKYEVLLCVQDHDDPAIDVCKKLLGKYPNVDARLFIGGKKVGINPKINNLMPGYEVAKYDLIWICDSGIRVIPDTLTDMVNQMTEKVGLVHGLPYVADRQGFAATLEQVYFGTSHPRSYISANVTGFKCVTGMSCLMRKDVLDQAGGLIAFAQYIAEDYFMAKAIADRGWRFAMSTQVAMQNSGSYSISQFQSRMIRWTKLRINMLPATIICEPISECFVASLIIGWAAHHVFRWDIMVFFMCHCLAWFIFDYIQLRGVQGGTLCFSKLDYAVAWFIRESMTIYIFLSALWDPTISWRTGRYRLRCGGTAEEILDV
# Assay: Assay 1: GCS Enzymatic Assay (MDCK cell lysate, C6-NBD-Ceramide, LC/MS)
# Format: biochemical, canine
# Conditions: Table 2; data marked by *
# Procedure, shortened: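 LC/MS/MS measurement of glucosylceramide and NBD-ceramide after a 1 h, 37 °C reaction with 100 μM UDP-glucose and 10 μM C6-NBD-ceramide gave IC50s or percent inhibition.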
row,Structure (SMILES),% inhibition generated from Assay 1
1,"O=C(N[C@H](CN1CCCC1)[C@H](O)c1cnc2c(c1)OCCO2)C(F)(F)c1cc2cc(Cl)ccc2o1 [Compound 185, 2-(5-chlorobenzofuran-2-yl)-N-((1R,2R)-1-(2,3-dihydro-[1,4]dioxino[2,3-b]pyridin-7-yl)-1-hydroxy-3-(pyrrolidin-1-yl)propan-2-yl)-2,2-difluoroacetamide]",B* (the compound had a % inhibition of greater than or equal to about 3% but less than about 50%)
2,"O=C(N[C@H](CN1CCCC1)[C@H](O)c1ccc2c(c1)OCCO2)C(F)(F)c1ccc(-c2ccccn2)cc1 [Compound 186, N-((1R,2R)-1-(2,3-dihydrobenzo[b][1,4]dioxin-6-yl)-1-hydroxy-3-(pyrrolidin-1-yl)propan-2-yl)-2,2-difluoro-2-(4-(pyridin-2-yl)phenyl)acetamide]",A* (the compound had a % inhibition of a percent inhibition of greater than or equal to about 50%)
3,"O=C(N[C@H](CN1CCC1)[C@H](O)c1cc(F)c2c(c1)OCCO2)C(=O)c1ccc2cc(Cl)ccc2c1 [Compound 188, N-((1R,2R)-3-(azetidin-1-yl)-1-(8-fluoro-2,3-dihydrobenzo[b][1,4]dioxin-6-yl)-1-hydroxypropan-2-yl)-2-(6-chloronaphthalen-2-yl)-2-oxoacetamide]",A* (the compound had a % inhibition of a percent inhibition of greater than or equal to about 50%)
4,"O=C(N[C@H](CN1CCCC1)[C@H](O)c1ccc2c(c1)OCCO2)C(=O)c1ccc(-c2ccc(F)cn2)cc1 [Compound 189, N-((1R,2R)-1-(2,3-dihydrobenzo[b][1,4]dioxin-6-yl)-1-hydroxy-3-(pyrrolidin-1-yl)propan-2-yl)-2-(4-(5-fluoropyridin-2-yl)phenyl)-2-oxoacetamide]",A* (the compound had a % inhibition of a percent inhibition of greater than or equal to about 50%)
5,"O=C(N[C@H](CN1CCCC1)[C@H](O)c1ccc2c(c1)OCCO2)/C(=N/O)c1ccc(-c2ccc(F)cn2)cc1 [Compound 190, (E)-N-((1R,2R)-1-(2,3-dihydrobenzo[b][1,4]dioxin-6-yl)-1-hydroxy-3-(pyrrolidin-1-yl)propan-2-yl)-2-(4-(5-fluoropyridin-2-yl)phenyl)-2-(hydroxyimino)acetamide]",A* (the compound had a % inhibition of a percent inhibition of greater than or equal to about 50%)
6,"CC(C)(O)COc1ccc([C@@H](O)[C@@H](CN2CCCC2)NC(=O)C(F)(F)C2Cc3ccc(Cl)cc3C2)cc1Cl (stereo partly drawn) [Compound 192, 2-(5-chloro-2,3-dihydro-1H-inden-2-yl)-N-((1R,2R)-1-(3-chloro-4-(2-hydroxy-2-methylpropoxy)phenyl)-1-hydroxy-3-(pyrrolidin-1-yl)propan-2-yl)-2,2-difluoroacetamide]",A* (the compound had a % inhibition of a percent inhibition of greater than or equal to about 50%)
7,"O=C(N[C@H](CN1CCCC1)[C@H](O)c1ccc2c(c1)OCCO2)C(=O)c1ccc(-c2ccccn2)cc1 [Compound 195, N-((1R,2R)-1-(2,3-dihydrobenzo[b][1,4]dioxin-6-yl)-1-hydroxy-3-(pyrrolidin-1-yl)propan-2-yl)-2-oxo-2-(4-(pyridin-2-yl)phenyl)acetamide]",A* (the compound had a % inhibition of a percent inhibition of greater than or equal to about 50%)
8,"O=C(N[C@H](CN1CCCC1)[C@H](O)c1cc(F)c2c(c1)OCCO2)C(F)(F)c1cn2ccccc2n1 [Compound 196, 2,2-difluoro-N-((1R,2R)-1-(8-fluoro-2,3-dihydrobenzo[b][1,4]dioxin-6-yl)-1-hydroxy-3-(pyrrolidin-1-yl)propan-2-yl)-2-(imidazo[1,2-a]pyridin-2-yl)acetamide]",B* (the compound had a % inhibition of greater than or equal to about 3% but less than about 50%)
9,"CN1CCCc2cc(CCC(F)(F)C(=O)N[C@H](CN3CCCC3)[C@H](O)c3ccc4c(c3)OCCO4)ccc21 [Compound 198, N-((1R,2R)-1-(2,3-dihydrobenzo[b][1,4]dioxin-6-yl)-1-hydroxy-3-(pyrrolidin-1-yl)propan-2-yl)-2,2-difluoro-4-(1-methyl-1,2,3,4-tetrahydroquinolin-6-yl)butanamide]",A* (the compound had a % inhibition of a percent inhibition of greater than or equal to about 50%)
10,"O=C(N[C@H](CN1CCCC1)[C@H](O)c1ccc(OC2CC2)c(Cl)c1)C(F)(F)c1cn2ccccc2n1 [Compound 199, N-((1R,2R)-1-(3-chloro-4-cyclopropoxyphenyl)-1-hydroxy-3-(pyrrolidin-1-yl)propan-2-yl)-2,2-difluoro-2-(imidazo[1,2-a]pyridin-2-yl)acetamide]",B* (the compound had a % inhibition of greater than or equal to about 3% but less than about 50%)

# Same assay, conditions: Table 2; data without asterisk; read-out: IC50 (nM) generated from Assay 1
row,IC50 [nM],Structure (SMILES)
1,< 50,"O=C(N[C@H](CN1CCCC1)[C@H](O)c1ccc(OC2CC2)c(Cl)c1)/C(=N/O)c1ccc(-c2ccc(F)cn2)cc1 [Compound 184, (E)-N-((1R,2R)-1-(3-chloro-4-cyclopropoxyphenyl)-1-hydroxy-3-(pyrrolidin-1-yl)propan-2-yl)-2-(4-(5-fluoropyridin-2-yl)phenyl)-2-(hydroxyimino)acetamide]"
2,< 50,"O=C(N[C@H](CN1CCCC1)[C@H](O)c1cc(F)c2c(c1)OCCO2)C(F)(F)c1ccc(-c2ccccn2)cc1 [Compound 187, 2,2-difluoro-N-((1R,2R)-1-(8-fluoro-2,3-dihydrobenzo[b][1,4]dioxin-6-yl)-1-hydroxy-3-(pyrrolidin-1-yl)propan-2-yl)-2-(4-(pyridin-2-yl)phenyl)acetamide]"
3,< 50,"O=C(N[C@H](CN1CCC1)[C@H](O)c1cc(F)c2c(c1)OCCO2)/C(=N/O)c1ccc2cc(Cl)ccc2c1 [Compound 191, (E)-N-((1R,2R)-3-(azetidin-1-yl)-1-(8-fluoro-2,3-dihydrobenzo[b][1,4]dioxin-6-yl)-1-hydroxypropan-2-yl)-2-(6-chloronaphthalen-2-yl)-2-(hydroxyimino)acetamide]"
4,< 50,"CC(C)(O)COc1ccc([C@@H](O)[C@@H](CN2CCCC2)NC(=O)C(=O)c2ccc(-c3ccc(F)cc3)cc2)cc1Cl [Compound 194, N-((1R,2R)-1-(3-chloro-4-(2-hydroxy-2-methylpropoxy)phenyl)-1-hydroxy-3-(pyrrolidin-1-yl)propan-2-yl)-2-(4′-fluoro-[1,1′-biphenyl]-4-yl)-2-oxoacetamide]"
5,< 50,"O=C(N[C@H](CN1CCCC1)[C@H](O)c1ccc2c(c1)OCCO2)C(=O)c1cccc(Oc2ccc(F)cc2)c1 [Compound 197, N-((1R,2R)-1-(2,3-dihydrobenzo[b][1,4]dioxin-6-yl)-1-hydroxy-3-(pyrrolidin-1-yl)propan-2-yl)-2-(3-(4-fluorophenoxy)phenyl)-2-oxoacetamide]"
6,< 50,"O=C(N[C@H](CN1CCCC1)[C@H](O)c1cc(F)c2c(c1)OCCO2)C(=O)c1ccc(N2CCCCC2)cc1 [Compound 200, N-((2R)-1-(8-fluoro-2,3-dihydrobenzo[b][1,4]dioxin-6-yl)-1-hydroxy-3-(pyrrolidin-1-yl)propan-2-yl)-2-oxo-2-(4-(piperidin-1-yl)phenyl)acetamide]"
